“Also recorded” adds a separate entry of the source.
What was measured:
[1] = tested on: trypsin-like (T-L) proteasome activity; experiment: Proteasome inhibition in packed whole blood: T-L; assay type: in vivo, human; conditions: for compensatory hyperactivation of T-L and C-L proteasome subunits: repeated dosing
Excerpt: (§1) The drugs were infused on 28-Day Cycles.
(§2) Change in proteasome activities in packed whole blood (PWB) lysates and peripheral blood mononuclear cell (PBMC) lysates, comparing pre-drug and post drug levels on Days 1, 8, and 15 of Cycle 1; Days 1 and 15 of each Cycle thereafter; and at the End-of Treatment Visit.
(§3) The laboratory correlates include assessment of the percentage inhibition of proteasome function (evaluated by measurement of CT-L, T-L and C-L activity in blood isolates such as whole blood and PBMC lysates.
(§4) PD analysis will include change in proteasome activities (whole blood lysates and PBMC lysates) by comparing pre-drug and post drug levels on Days 1, 8, and 15 (i.e., for each dose) of Cycle 1 and Days 1 and 15 (i.e., for the first and last doses) of each cycle thereafter.

[2] = tested on: chymotrypsin-like (CT-L) proteasome activity; experiment: Proteasome inhibition in packed whole blood: CT-L; assay type: in vivo, human
Excerpt: as §1, §2, §3, §4

[3] = Compassionate use of marizomib in CNS-myeloma patients: safety; assay type: in vivo, human
Protocol: This example sets forth seven case studies in which CNS-MM (i.e., multiple myeloma with CNS involvement) was treated using marizomib alone or in combination with other agents.
As set forth herein, 7 patients were treated under single patient compassionate use protocols with MRZ for CNS-myeloma. Marizomib was well-tolerated. […] One patient has been on the study for 13 months with complete resolution of both […].

[4] = target: T1, caspase-like (C-L) proteasome activity (Homo sapiens, UniProt P28072); experiment: Proteasome inhibition in packed whole blood: C-L; assay type: in vivo; conditions: PWB post-Marizomib infusion (peak effect)
T1 construct: Change in proteasome activities in packed whole blood (PWB) lysates and peripheral blood mononuclear cell (PBMC) lysates; from tissue; host or cells: packed whole blood lysates of dosed glioma patients
Excerpt: as §1, §2, §3, §4

[5] = Phase 1b MRZ + TMZ (+RT) in newly diagnosed G4 MG: adverse events, DLT; assay type: in vivo, human
Protocol: This is a Phase 1b, open-label, 3+3, dose-escalation followed by dose-expansion study in patients with newly diagnosed G4 MG who have not previously received any local or systemic therapy for their G4 MG. The study will examine the effect of the addition of MRZ to standard of care treatment utilizing two study arms: Concomitant Treatment in which MRZ will be combined with TMZ+RT and Adjuvant Treatment in which MRZ will be combined with TMZ. The study will be conducted in two Stages. In Stage 1 (Dose-Escalation): 3 to 6 evaluable patients per MRZ dose cohort will be enrolled in each study arm. […] A total of approximately 48 patients will be enrolled in Stages 1 and 2 combined. Patients may not be enrolled in more than 1 MRZ dose cohort per arm.
Concomitant Treatment consists of a 6 week (42 day) treatment period, followed by a 4 (−1) week break from treatments. All patients will receive intravenous (IV) MRZ infusion on Days 1, 8, 15, 29, and 36 as a 10 minute infusion. IV hydration will be given prior to the infusion. Focal RT will be administered once daily, 5 days/week, for 30 doses over 6 weeks to a total dose of 60 Gy, starting on Day 1. TMZ will be administered once daily, 7 days/week, for 6 weeks, starting on Day 1, at a dose of 75 mg/m^2. Patients who complete Concomitant Treatment may continue on to Adjuvant Treatment.
All patients will receive IV MRZ infusion on Days 1, 8, and 15 as a 10 minute infusion, in 28-day cycles. IV hydration will be given prior to the infusion. TMZ will be administered daily for 5 consecutive days, starting on Day 1 of Cycle 1 (C1D1), at a dose of 150 mg/m^2. If tolerated in Cycle 1, the TMZ dose will be increased on Day 1 of Cycle 2 (C2D1) to a dose of 200 mg/m^2.

proteasome = experiment: Proteasome activity in monkey brain; assay type: in vivo; conditions: monkey (primate)
[6] = PWB post-MRZ infusion (peak effect), 0.7 mg/m^2 (17 May 2016)
[7] = N = 20, related to the labelled drug
[8] = N = 20, related to the labelled drug (MRZ+TMZ = related to both)
[9] = patient 301-A202, action taken None
[10] = patient 301-C202, action taken None

C[C@@]12OC(=O)[C@]1([C@@H](O)[C@@H]1C=CCCC1)NC(=O)[C@@H]2CCCl [marizomib]
% T-L inhibition [1, 6]: 77.3 ± 10.5 (3) %
compensatory hyperactivation of T-L and C-L proteasome subunits [1]: overcome compensatory hyperactivation of proteasome subunits; also recorded: overcomes compensatory hyperactivation
compensatory hyperactivation of T-L and C-L proteasome subunits ([1]; listed as MRZ): overcomes compensatory hyperactivation of proteasome subunits
% CT-L inhibition [2, 6]: 100 ± 0 (3) %
% CT-L inhibition ([2]; PWB post-Marizomib infusion (peak effect), 0.7 mg/m^2): 100 ± 0 (3) %
% CT-L inhibition ([2]; PWB post-Marizomib infusion (peak effect), 0.8 mg/m^2): 100 ± 0 (3) %
sustained inhibition of the CT-L domain, pre-infusion ([2]; packed whole blood, up to two weeks after marizomib dosing): 60-80%
CNS adverse events ([3]; 7 CNS-MM patients): no CNS adverse events
tolerability ([3]; 7 CNS-MM patients): well-tolerated
CNS adverse events ([3]; 7 CNS-MM patients, listed as Marizomib): No CNS-adverse events
Safety ([3]; Case 1): No adverse events were reported
Safety ([3]; Case 1, listed as MRZ): MRZ was well tolerated
Safety ([3]; Case 2): No adverse events or serious adverse events were observed
Safety ([3]; Case 2, listed as MRZ): No concerning AEs
Safety ([3]; Case 3): grade 1 adverse event
Safety ([3]; Case 3, listed as MRZ): Grade 1 shortness of
Safety ([3]; Case 4): well-tolerated with no adverse events reported
Safety ([3]; Case 4, listed as MRZ): Tolerated treatment
Safety ([3]; Case 5): serious adverse event
Safety ([3]; Case 5, listed as MRZ): AE due to PD,
Safety ([3]; Case 6): grade 2 adverse event
Safety ([3]; Case 6, listed as MRZ): Overall, no safety
Safety ([3]; Case 7, listed as MRZ): No adverse events or safety concerns were noted; also recorded: No AEs or safety
inhibition at […]2 ([4]; 0.55 mg/m^2): 21 ± 7.8%
inhibition at 0.7 mg/m2 ([4]; 0.7 mg/m^2): 50.4 ± 9.1%
inhibition at 0.8 mg/m2 ([4]; 0.8 mg/m^2): 51.9 ± 8.3%
Discontinued, reason Adverse Event ([5]; N = 20): 1 (5.0%)
Dose reduction, reason Adverse Event ([5]; N = 20): 1 (5.0%)
Number of Patients with drug Discontinued ([5]; N = 20): 1 (5.0%)
Number of Patients with ≥1 Dose Reduction ([5]; N = 20): 1 (5.0%)
patients with MRZ-related serious adverse events ([5]; N = 20): One
patients with fatigue Grade ≥3 ([5]; N = 20): Three
Abdominal pain, Grade ≥3 TEAE, drug related [5, 7]: 0 (0.0%)
Confusional state, treatment-related TEAE, number of patients [5, 7]: 3
Confusional state, treatment-related TEAE, percent of patients [5, 7]: (15.0%)
Constipation, treatment-related TEAE, number of patients [5, 7]: 1
Constipation, treatment-related TEAE, percent of patients [5, 7]: (5.0%)
Decreased appetite, treatment-related TEAE, number of patients [5, 7]: 4
Decreased appetite, treatment-related TEAE, percent of patients [5, 7]: (20.0%)
Dehydration, Grade ≥3 TEAE, drug related [5, 7]: 1 (5.0%)
Diarrhoea, treatment-related TEAE, number of patients [5, 7]: 2
Diarrhoea, treatment-related TEAE, percent of patients [5, 7]: (10.0%)
Dizziness, treatment-related TEAE, number of patients [5, 7]: 4
Dizziness, treatment-related TEAE, percent of patients [5, 7]: (20.0%)
Hallucination, Grade ≥3 TEAE, drug related [5, 7]: 1 (5.0%)
Hallucination, treatment-related TEAE, number of patients [5, 7]: 5
Hallucination, treatment-related TEAE, percent of patients [5, 7]: (25.0%)
Headache, Grade ≥3 TEAE, drug related [5, 7]: 0 (0.0%)
Headache, treatment-related TEAE, number of patients [5, 7]: 3
Headache, treatment-related TEAE, percent of patients [5, 7]: (15.0%)
Insomnia, Grade ≥3 TEAE, drug related [5, 7]: 0 (0.0%)
Muscular weakness, treatment-related TEAE, number of patients [5, 7]: 3
Muscular weakness, treatment-related TEAE, percent of patients [5, 7]: (15.0%)
Musculoskeletal pain, Grade ≥3 TEAE, drug related [5, 7]: 0 (0.0%)
Nausea, treatment-related TEAE, number of patients [5, 7]: 9
Nausea, treatment-related TEAE, percent of patients [5, 7]: (45.0%)
Ovarian cyst, Grade ≥3 TEAE, drug related [5, 7]: 0 (0.0%)
Pelvic infection, Grade ≥3 TEAE, drug related [5, 7]: 0 (0.0%)
Platelet count decreased, Grade ≥3 TEAE, drug related [5, 7]: 1 (5.0%)
Platelet count decreased, treatment-related TEAE, number of patients [5, 7]: 2
Platelet count decreased, treatment-related TEAE, percent of patients [5, 7]: (10.0%)
Rash maculo-papular, treatment-related TEAE, number of patients [5, 7]: 1
Rash maculo-papular, treatment-related TEAE, percent of patients [5, 7]: (5.0%)
Vomiting, Grade ≥3 TEAE, drug related [5, 7]: 1 (5.0%)
Vomiting, treatment-related TEAE, number of patients [5, 7]: 5
Vomiting, treatment-related TEAE, percent of patients [5, 7]: (25.0%)
Fatigue, Grade ≥3 TEAE, drug related [5, 8]: 3 (15.0%)
Fatigue, treatment-related TEAE, number of patients [5, 8]: 13
Fatigue, treatment-related TEAE, percent of patients [5, 8]: (65.0%)
Grade 2 SAEs (nausea, confusional state), MRZ-related ([5]; interim analysis, 20 patients): two
Grade 3 SAEs (fatigue, hallucination, vomiting), MRZ-related ([5]; interim analysis, 20 patients): three
tolerability ([5]; newly diagnosed G4 MG): well tolerated
SAE Nephrolithiasis, relationship to drug ([5]; patient 104-C302, action taken None): Not Suspected/
SAE Confusional state, relationship to drug [5, 9]: Suspected/
SAE Dehydration, relationship to drug [5, 9]: Not Suspected/
SAE Fatigue, relationship to drug [5, 9]: Suspected/
SAE Hallucination, relationship to drug [5, 9]: Suspected/
SAE Nausea, relationship to drug [5, 9]: Suspected/
SAE Vomiting, relationship to drug [5, 9]: Suspected/
SAE Ovarian cyst, relationship to drug ([5]; patient 301-C202, action taken Dose Delayed): Not Suspected/
SAE Convulsion, relationship to drug [5, 10]: Not Suspected/
SAE Pelvic infection, relationship to drug [5, 10]: Not Suspected/
proteasome activity in brain (proteasome): inhibition of proteasome activity; also recorded: inhibits proteasome activity

— patent publication US10894036B2, “Use of marizomib for the treatment of central nervous system (CNS) cancers” (Celgene International II Sàrl, priority 2016, dated 2021)
